Here are results for 13 molecules from ChEMBL document CHEMBL1909046, “DrugMatrix in vitro pharmacology data”.

The structures appear in SMILES notation.

One experiment deals with D(1A) dopamine receptor (Homo sapiens, UniProt P21728). Briefly: DRUGMATRIX: Dopamine D1 radioligand binding (ligand: [3H] SCH-23390). As to conditions: Not Active = under 50% inhibition at 10 µM. Type of experiment: cell membranes, CHO, Membrane.
The target in another experiment is T1, Endothelin-1 receptor (Homo sapiens, UniProt P25101). Also: in other assays of this panel Not Active means under 50% inhibition at 10 µM.
T1 sequence (P25101 whole entry): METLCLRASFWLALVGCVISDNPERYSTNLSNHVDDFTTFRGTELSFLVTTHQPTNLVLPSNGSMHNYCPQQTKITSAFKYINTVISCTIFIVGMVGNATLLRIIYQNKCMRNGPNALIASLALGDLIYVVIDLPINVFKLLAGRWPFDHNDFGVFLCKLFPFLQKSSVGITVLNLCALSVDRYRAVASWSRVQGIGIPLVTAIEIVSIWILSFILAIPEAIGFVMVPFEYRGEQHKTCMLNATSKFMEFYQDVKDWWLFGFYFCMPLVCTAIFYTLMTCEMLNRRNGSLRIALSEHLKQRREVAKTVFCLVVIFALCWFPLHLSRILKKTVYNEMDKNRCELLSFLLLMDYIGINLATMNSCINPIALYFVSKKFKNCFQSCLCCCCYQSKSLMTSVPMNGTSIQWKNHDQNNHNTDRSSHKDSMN
Type of experiment: cell membranes, Membrane. As to conditions: cho-k1.

For experiment [1], the target named is Mitogen-activated protein kinase 3 (Homo sapiens, UniProt P27361). Kind of experiment: DRUGMATRIX: Protein Serine/Threonine Kinase, ERK1 enzyme inhibition (substrate: Myelin Basic Protein). The arrangement: species or system Escherichia coli. To be noted: Not Active = under 50% inhibition at 10 µM.
Mitogen-activated protein kinase 3, sequence (P27361 whole entry): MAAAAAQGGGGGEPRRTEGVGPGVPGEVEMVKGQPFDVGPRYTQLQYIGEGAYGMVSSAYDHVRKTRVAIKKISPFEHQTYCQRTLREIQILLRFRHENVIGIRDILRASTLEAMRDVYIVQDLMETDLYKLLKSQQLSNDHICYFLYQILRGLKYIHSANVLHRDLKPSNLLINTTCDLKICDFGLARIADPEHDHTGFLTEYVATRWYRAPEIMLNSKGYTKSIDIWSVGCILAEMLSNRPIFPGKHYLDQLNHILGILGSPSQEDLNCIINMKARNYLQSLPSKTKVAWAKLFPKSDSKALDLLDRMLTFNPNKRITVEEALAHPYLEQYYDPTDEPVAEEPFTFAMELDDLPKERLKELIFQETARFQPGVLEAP
Experiment [2] deals with Sodium-dependent dopamine transporter (Homo sapiens, UniProt Q01959). Briefly: DRUGMATRIX: Dopamine Transporter radioligand binding (ligand: [125I] RTI-55). Type of experiment: cell membranes, CHO-K1, Membrane. As to conditions: cho-k1; Not Active = under 50% inhibition at 10 µM.
Sodium-dependent dopamine transporter, sequence (Q01959 whole entry): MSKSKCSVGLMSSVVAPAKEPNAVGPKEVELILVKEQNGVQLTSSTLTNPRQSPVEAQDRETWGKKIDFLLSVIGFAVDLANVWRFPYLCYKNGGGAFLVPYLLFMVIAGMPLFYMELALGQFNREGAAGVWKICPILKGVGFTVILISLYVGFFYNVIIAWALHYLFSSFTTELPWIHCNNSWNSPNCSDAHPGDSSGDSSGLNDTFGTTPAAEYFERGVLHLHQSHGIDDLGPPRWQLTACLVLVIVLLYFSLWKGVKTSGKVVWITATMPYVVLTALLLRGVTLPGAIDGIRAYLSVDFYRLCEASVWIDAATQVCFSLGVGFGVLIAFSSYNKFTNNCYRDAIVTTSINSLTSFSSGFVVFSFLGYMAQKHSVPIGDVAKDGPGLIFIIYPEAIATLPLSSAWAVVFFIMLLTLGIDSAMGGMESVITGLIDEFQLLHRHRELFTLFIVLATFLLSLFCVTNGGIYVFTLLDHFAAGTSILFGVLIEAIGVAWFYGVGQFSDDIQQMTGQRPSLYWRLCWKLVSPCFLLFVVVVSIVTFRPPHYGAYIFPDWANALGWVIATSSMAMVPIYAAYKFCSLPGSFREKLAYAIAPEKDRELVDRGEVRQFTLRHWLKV
Another experiment addresses T2, Leukotriene C4 synthase (Cavia porcellus, UniProt A6XA80).
T2 sequence (A6XA80 whole entry): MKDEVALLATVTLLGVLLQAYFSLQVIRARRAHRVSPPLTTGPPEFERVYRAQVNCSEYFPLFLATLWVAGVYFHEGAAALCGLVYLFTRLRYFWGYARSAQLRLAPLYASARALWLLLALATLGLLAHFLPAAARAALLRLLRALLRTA
Type of experiment: tissue-based, Lung.

The target of another experiment is Melanocortin receptor 4 (Homo sapiens, UniProt P32245). Type of experiment: cell membranes, Membrane. To be noted: hek293. Also: in other assays of this panel Not Active means under 50% inhibition at 10 µM.
Melanocortin receptor 4, sequence (P32245 whole entry): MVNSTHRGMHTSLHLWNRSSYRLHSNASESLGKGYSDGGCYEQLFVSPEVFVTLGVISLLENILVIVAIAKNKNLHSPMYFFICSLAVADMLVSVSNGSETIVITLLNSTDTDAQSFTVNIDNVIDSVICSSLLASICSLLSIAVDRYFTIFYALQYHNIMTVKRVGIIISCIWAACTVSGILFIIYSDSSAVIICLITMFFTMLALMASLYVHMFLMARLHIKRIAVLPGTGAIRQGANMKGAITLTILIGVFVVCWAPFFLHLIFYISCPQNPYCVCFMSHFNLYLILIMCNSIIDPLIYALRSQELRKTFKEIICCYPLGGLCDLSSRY

D(1A) dopamine receptor, sequence (P21728 whole entry): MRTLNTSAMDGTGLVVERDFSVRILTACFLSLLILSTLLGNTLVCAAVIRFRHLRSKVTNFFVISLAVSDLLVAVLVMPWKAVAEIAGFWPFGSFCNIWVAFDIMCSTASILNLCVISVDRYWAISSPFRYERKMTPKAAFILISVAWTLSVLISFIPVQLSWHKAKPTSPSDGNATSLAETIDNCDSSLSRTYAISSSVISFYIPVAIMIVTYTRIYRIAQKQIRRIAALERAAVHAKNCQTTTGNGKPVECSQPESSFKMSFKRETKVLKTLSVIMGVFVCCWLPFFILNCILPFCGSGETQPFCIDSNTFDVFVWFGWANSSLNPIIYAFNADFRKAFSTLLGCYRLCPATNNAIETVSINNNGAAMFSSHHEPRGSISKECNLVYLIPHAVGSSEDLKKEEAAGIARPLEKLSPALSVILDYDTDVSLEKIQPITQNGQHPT

The term IC50 denotes the concentration at which inhibition is half-maximal. On to `NC12CC3CC(CC(C3)C1)C2` [AMANTADINE], for which the concentration for half-maximal inhibition (IC50) entry (on D(1A) dopamine receptor (cho); against Endothelin-1 receptor; in experiment [1]; in experiment [2]; on Leukotriene C4 synthase; against Melanocortin receptor 4) was “Not Active” throughout.
As for `NCCCNCCSP(=O)(O)O` [AMIFOSTINE], the IC50 result (at D(1A) dopamine receptor (cho); at Endothelin-1 receptor; in experiment [1]; in experiment [2]; against Leukotriene C4 synthase; against Melanocortin receptor 4) was “Not Active” throughout.
In general, Ki refers to a dissociation constant, usually derived from enzyme kinetics or from competition with a known ligand. Take `CN(C)CCC=C1c2ccccc2CCc2ccccc21` [AMITRIPTYLINE]: the IC50 at D(1A) dopamine receptor (read-out: IC50) was 355 nM; at Endothelin-1 receptor it was “Not Active”; in experiment [1], “Not Active”; in experiment [2], “Not Active”; against Leukotriene C4 synthase, “Not Active”; against Melanocortin receptor 4 it was “Not Active”. For the same molecule, the Ki on D(1A) dopamine receptor (read-out: Ki) was found to be 178 nM.
Consider `CC(=O)Oc1ccccc1C(=O)O` [ASPIRIN], for which the 50% inhibitory concentration (IC50) entry (on D(1A) dopamine receptor (cho); at Endothelin-1 receptor; in experiment [1]; in experiment [2]; against Leukotriene C4 synthase; on Melanocortin receptor 4) was “Not Active” in each case.
Regarding `CC(C)c1c(C(=O)Nc2ccccc2)c(-c2ccccc2)c(-c2ccc(F)cc2)n1CC[C@@H](O)C[C@@H](O)CC(=O)O` [ATORVASTATIN], the IC50 entry (at D(1A) dopamine receptor (cho); at Endothelin-1 receptor; in experiment [1]; in experiment [2]; against Leukotriene C4 synthase; against Melanocortin receptor 4) was “Not Active” throughout.
Regarding `CC(=O)OC[C@H]1O[C@@H](n2ncc(=O)[nH]c2=O)[C@H](OC(C)=O)[C@@H]1OC(C)=O` [AZARIBINE], the IC50 result (on D(1A) dopamine receptor (cho); against Endothelin-1 receptor; in experiment [1]; in experiment [2]; at Leukotriene C4 synthase; against Melanocortin receptor 4) was “Not Active” throughout.
Turning to `C[C@H]1[C@H](NC(=O)/C(=N\OC(C)(C)C(=O)O)c2csc(N)n2)C(=O)N1S(=O)(=O)O` [AZTREONAM], the IC50 result (on D(1A) dopamine receptor (cho); against Endothelin-1 receptor; in experiment [1]; in experiment [2]; against Leukotriene C4 synthase; at Melanocortin receptor 4) was “Not Active” throughout.
Take `O=C(O)CCNC(=O)c1ccc(/N=N/c2ccc(O)c(C(=O)O)c2)cc1` [BALSALAZIDE]: the half-inhibitory concentration (IC50) result (on D(1A) dopamine receptor (cho); at Endothelin-1 receptor; in experiment [1]; in experiment [2]; at Leukotriene C4 synthase; at Melanocortin receptor 4) was “Not Active” throughout.
`COc1cc(OC)c(C(=O)CCCN2CCCC2)c(OC)c1` [BUFLOMEDIL]: the half-inhibitory concentration (IC50) result (at D(1A) dopamine receptor (cho); against Endothelin-1 receptor; in experiment [1]; in experiment [2]; on Leukotriene C4 synthase; against Melanocortin receptor 4) was “Not Active” throughout.
For the molecule `Cn1c(=O)c2c(ncn2C)n(C)c1=O` [CAFFEINE], the IC50 entry (on D(1A) dopamine receptor (cho); against Endothelin-1 receptor; in experiment [1]; in experiment [2]; against Leukotriene C4 synthase; at Melanocortin receptor 4) was “Not Active” each time.
Take `ClC(Cl)(Cl)Cl` [CARBON TETRACHLORIDE]: the IC50 entry (on D(1A) dopamine receptor (cho); at Endothelin-1 receptor; in experiment [1]; in experiment [2]; at Leukotriene C4 synthase; against Melanocortin receptor 4) was “Not Active” each time.
For the molecule `CNC1=Nc2ccc(Cl)cc2C(c2ccccc2)=[N+]([O-])C1` [CHLORDIAZEPOXIDE], the IC50 entry (at D(1A) dopamine receptor (cho); against Endothelin-1 receptor; in experiment [1]; in experiment [2]; at Leukotriene C4 synthase; against Melanocortin receptor 4) was “Not Active” throughout.
Take `Cc1cc(O)cc(C)c1Cl` [CHLOROXYLENOL]: the IC50 entry (at D(1A) dopamine receptor (cho); against Endothelin-1 receptor; in experiment [1]; in experiment [2]; against Leukotriene C4 synthase; against Melanocortin receptor 4) was “Not Active” in each case.
